Measurements from ChEMBL document CHEMBL4813917, “2-((1-Phenyl-1H-1,2,3-triazol-4-yl)methyl)-2-azabicyclo[3.2.1]octan-3-one derivatives: Simplification and modification of aconitine scaffold for the discovery of novel anticancer agents” (Eur J Med Chem, 2021).
pIC50: −log10 of the molar value. Active and inactive are the calls of the source. No cut-off for these calls is given here.

What was measured:
SW-620 [1] = assay: Antitumour activity against human SW-620 cells xenografted in Balb/c mouse assessed as decrease in Ki67 expression in tumour at 5 mg/kg, ip measured after 21 days immunochemical staining method; format: functional, organism-based; conditions: time 21.0 day
A549 = assay: Antiproliferative activity against human A549 cells assessed as inhibition of cell proliferation measured after 24 hrs by MTT assay; format: functional, cell-based; conditions: A549, 24 h
[2] = Cytotoxicity against human MRC5 cells assessed as reduction in cell viability measured after 24 hrs by MTT assay; format: cell-based
[3] = Cytotoxicity against human HPDE6c7 cells assessed as reduction in cell viability measured after 24 hrs by MTT assay; format: functional
SGC-7901 = assay: Antiproliferative activity against human SGC-7901 cells assessed as inhibition of cell proliferation measured after 24 hrs by MTT assay; format: functional, cell-based; conditions: SGC-7901, 24 h
[4] = Cytotoxicity against human IOSE80 cells assessed as reduction in cell viability measured after 24 hrs by MTT assay; format: cell-based
HepG2 = assay: Antiproliferative activity against human HepG2 cells assessed as inhibition of cell proliferation measured after 24 hrs by MTT assay; format: functional, cell-based; conditions: HepG2, 24 h
LoVo = assay: Antiproliferative activity against human LoVo cells assessed as inhibition of cell proliferation measured after 24 hrs by MTT assay; format: functional, cell-based
SW-620 [5] = assay: Antitumour activity against human SW-620 cells xenografted in Balb/c mouse assessed as inhibition of tumour growth at 5 mg/kg, ip measured after 21 days; format: functional; conditions: SW-620, ip, 504 h, time 21 day, read-out: TGI
[6] = Cytotoxicity against human L02 cells assessed as reduction in cell viability measured after 24 hrs by MTT assay; format: cell-based
[7] = Cytotoxicity against human GES1 cells assessed as reduction in cell viability measured after 24 hrs by MTT assay; format: cell-based
PANC-1 = assay: Antiproliferative activity against human PANC-1 cells assessed as inhibition of cell proliferation measured after 24 hrs by MTT assay; format: functional, cell-based; conditions: PANC-1, 24 h
[8] = Cytotoxicity against human NCM460 cells assessed as reduction in cell viability measured after 24 hrs by MTT assay; format: cell-based
OVCAR-3 = assay: Antiproliferative activity against human OVCAR-3 cells assessed as inhibition of cell proliferation measured after 24 hrs by MTT assay; format: functional, cell-based; conditions: OVCAR-3, 24 h
[9] = target: Heat shock protein HSP 90-alpha (Homo sapiens, UniProt P07900); assay: Inhibition of recombinant human N terminal his-tagged HSP90 alpha (1 to 732 residues) expressed in Escherichia coli measured after 60 mins by Flourescence polarization assay

pIC50 (A549)	pIC50 (SGC-7901)	pIC50 (HepG2)	pIC50 (LoVo)	pIC50 (PANC-1)	pIC50 (OVCAR-3)	pIC50 [9]	Structure (SMILES)	Activity (SW-620 [1])	CC50 at 24 h [2] [nM]	CC50 [3] [nM]	CC50 at 24 h [4] [nM]	inhibition in vivo at 5 mg/kg (SW-620 [5]) [%]	CC50 at 24 h [6] [nM]	CC50 at 24 h [7] [nM]	CC50 at 24 h [8] [nM]
6.62	6.52	7.22	7.40	6.82	6.52	8.57	CC1(C)[C@H]2CC[C@]1(C)N(Cc1cn(-c3ccccc3F)nn1)C(=O)C2	–	15100	26200	19200	–	13300	5160	5260
6.74	6.57	7.15	6.39	6.55	6.43	–	CC1(C)[C@H]2CC[C@]1(C)N(Cc1cn(-c3cccc(O)c3)nn1)C(=O)C2	–	–	–	–	–	–	–	–
6.40	6.41	6.32	7.30	6.57	7.40	–	Cc1ccc(-n2cc(CN3C(=O)C[C@@H]4CC[C@@]3(C)C4(C)C)nn2)cc1	–	–	–	–	–	–	–	–
7.15	6.62	7.05	7.30	6.80	7.30	7.47	CC1(C)[C@H]2CC[C@]1(C)N(Cc1cn(-c3ccccc3)nn1)C(=O)C2	–	9730	> 100000	23400	–	6230	6690	19600

Continued, compound first:

Structure (SMILES)	pIC50 (A549)	pIC50 (SGC-7901)	pIC50 (HepG2)	pIC50 (LoVo)	pIC50 (PANC-1)	pIC50 (OVCAR-3)	pIC50 [9]	Activity (SW-620 [1])	CC50 at 24 h [2] [nM]	CC50 [3] [nM]	CC50 at 24 h [4] [nM]	inhibition in vivo at 5 mg/kg (SW-620 [5]) [%]	CC50 at 24 h [6] [nM]	CC50 at 24 h [7] [nM]	CC50 at 24 h [8] [nM]
C=CCNC1=C2C[C@@H](C)C[C@H](OC)[C@H](O)[C@@H](C)/C=C(\C)[C@H](OC(N)=O)[C@@H](OC)/C=C\C=C(/C)C(=O)NC(=CC1=O)C2=O [TANESPIMYCIN]	< 5.00	< 5.00	6.48	6.59	5.49	6.32	–	Active	14200	19500	21500	29.6	11600	7940	14200
COc1cccc(-n2cc(CN3C(=O)C[C@@H]4CC[C@@]3(C)C4(C)C)nn2)c1	6.62	6.23	7.15	7.10	6.07	6.55	–	–	–	–	–	–	–	–	–
CC1(C)[C@H]2CC[C@]1(C)N(Cc1cn(-c3ccccc3C#N)nn1)C(=O)C2	7.00	6.59	6.74	6.85	6.62	6.96	8.10	–	23300	16000	13800	–	46100	9450	37500
Cc1ccccc1-n1cc(CN2C(=O)C[C@@H]3CC[C@@]2(C)C3(C)C)nn1	7.05	6.46	6.82	7.10	6.60	6.82	–	–	–	–	–	–	–	–	–
CC1(C)[C@H]2CC[C@]1(C)N(Cc1cn(-c3ccc(F)cc3)nn1)C(=O)C2	6.64	6.30	7.05	7.40	6.96	6.70	–	–	–	–	–	–	–	–	–
CC1(C)[C@H]2CC[C@]1(C)N(Cc1cn(-c3ccc(Br)cc3)nn1)C(=O)C2	7.10	6.35	6.96	7.22	6.70	6.85	–	–	–	–	–	–	–	–	–
CC1(C)[C@H]2CC[C@]1(C)N(Cc1cn(-c3cccc(F)c3)nn1)C(=O)C2	6.74	6.28	7.10	7.05	6.66	6.37	–	–	–	–	–	–	–	–	–
